Source: US12281116B2, “HTT modulators for treating Huntington's disease” (CHDI Foundation, Inc., priority 2021, dated 2025)

The compounds below were run on tHTT (total HTT protein) (assay: Time-resolved FRET (HTRF) assay: Q48-Huntingtin and total-Huntingtin detection in GEN020 hESC lysates). Conditions: tHTT activity; human embryonic stem cells GEN020 (mutant 48 Q repeat allele); test compounds 48 hours; read-out: HTT Lowering Activity (HTRF).
Format: cell-based
Experimental: Time-resolved FRET assay: Q48-Huntingtin and total-Huntington detection Detection of endogenous HTT protein in cell lysates was performed using a protocol adapted from Weiss et al. See Weiss A et al. (2009). Single-step detection of mutant huntingtin in animal and human tissues: a bioassay for Huntington's disease. Anal. Biochem. 395(1): 8-15.
The multiplex assay was performed in human embryonic stem cells (GEN020 hESCs with mutant 48 Q repeat allele) which have been derived by Genea Biocells from human blastocysts of HD donors. Bradley C K et al. (2011). Derivation of Huntington's disease-affected human embryonic stem cell lines, Stem Cells Dev. 2011 March; 20(3):495-502. Cells were plated into 384-well collagen coated plates (10,000 cells per well) and left to adhere for 24 hours, test compounds were then added for 48 hours (37° C., 5% CO2), cells were then lysed, and the lysate was transferred to a black 384-well assay plate.
The assay plate included a combination of HTRF labelled monoclonal antibodies added to recognize discreet areas of the HTT protein, the Tb “donor” antibody (2B7-Tb: 0.2 ng/well) recognizes a sequence at the N-terminus of the protein, an Alexa488 “acceptor 1” antibody (MW1-Alexa488: 30 ng/well) recognizes an area in the polyQ region, whereas a d2 “acceptor 2” antibody (MAB2166-d2: 6 ng/well) recognizes a sequence beyond the polyQ region. These detection reagents were incubated with the cell lysate at room temperature for 4-6 hours before having their fluorescence quantified at 615 nm (donor) and 535 nm and 665 nm (acceptor 1 and 2 respectively). The donor/acceptor ratio between these signals indicated the relative quantities of mHTT and tHTT.
Results for various compounds described herein are provided in the Tables below. tHTT activity in this assay is categorized as 10-20 μM (−); 1-10 μM (+); 0.5-1 μM (++); 0.1-0.5 μM (+++); <0.1 μM (++++).

`Cc1nc2c(F)cc(NC(=O)c3cnc(N4CC(CNC(C)C)C4)cn3)cc2o1` [Example 12, N-(4-fluoro-2-methylbenzo[d]oxazol-6-yl)-5-(3-((isopropylamino)methyl)azetidin-1-yl)pyrazine-2-carboxamide] and `Cc1nc2c(F)cc(NC(=O)c3cnc(N(C)C4CCNCC4)cn3)cc2o1` [Example 14, N-(4-fluoro-2-methylbenzo[d]oxazol-6-yl)-5-(methyl(piperidin-4-yl)amino)pyrazine-2-carboxamide] fall in the same range of IC50: 100 to 500 nM for the first, 100 to 500 nM for the second.

`Cn1cc2cc(NC(=O)c3cnc(N4CC[C@@H](NC5CC5)C4)cn3)c(OC3CCOCC3)cc2n1` [Example 2, (R)-5-(3-(cyclopropylamino)pyrrolidin-1-yl)-N-(2-methyl-6-((tetrahydro-2H-pyran-4-yl)oxy)-2H-indazol-5-yl)pyrazine-2-carboxamide] and `Cn1cc2cc(NC(=O)c3cnc(N4CC[C@@H](NC5CC5)C4)cn3)c(OCC3CCOCC3)cc2n1` [Example 6, (R)-5-(3-(cyclopropylamino)pyrrolidin-1-yl)-N-(2-methyl-6-((tetrahydro-2H-pyran-4-yl)methoxy)-2H-indazol-5-yl)pyrazine-2-carboxamide] fall in the same range of IC50: 500 to 1000 nM for the first, 500 to 1000 nM for the second.

Compared with `CCOc1cc2nn(C)cc2cc1NC(=O)c1cnc(N2CC(CN3CC(F)C3)C2)cn1` [Example 17], `COc1cc2nn(C)cc2cc1NC(=O)c1cnc(N2CC3C(N)C3C2)cn1` (stereo not shown) [Example 30, 5-(6-Amino-3-azabicyclo[3.1.0]hexan-3-yl)-N-(6-methoxy-2-methyl-indazol-5-yl)pyrazine-2-carboxamide] is lower in IC50: 100 to 500 nM for the first, < 100 nM for the second.

`Cc1cn2cc(NC(=O)c3cnc(N4CC5C(N)C5C4)cn3)cc(F)c2n1` (stereo not shown) [Example 24, 5-(6-amino-3-azabicyclo[3.1.0]hexan-3-yl)-N-(8-fluoro-2-methyl-imidazo[1,2-a]pyridin-6-yl)pyrazine-2-carboxamide] and `CNC1C2CN(c3cnc(C(=O)Nc4cc(F)c5nc(C)cn5c4)cn3)CC21` (stereo not shown) [Example 29, N-(8-Fluoro-2-methyl-imidazo[1,2-a]pyridin-6-yl)-5-[6-(methylamino)-3-azabicyclo[3.1.0]hexan-3-yl]pyrazine-2-carboxamide] cannot be ordered by IC50: < 100 nM for the first, < 100 nM for the second.

First: Cc1cc2cc(NC(=O)c3cnc(N4CC[C@@H](CNC5CC5)C4)cn3)cc(Cl)n2n1 [Example 16]
Second: CN[C@@H]1CCN(c2cnc(C(=O)Nc3cc(Cl)n4nc(C)cc4c3)cn2)C1 [Example 15]
The IC50 of the first is higher: 500 to 1000 nM for the first, < 100 nM for the second. The second is the more potent here.

`COCCOc1cc2nn(C)cc2cc1NC(=O)c1cnc(N2CC[C@@H](NC3CC3)C2)cn1` [Example 9, (R)-5-(3-(cyclopropylamino)pyrrolidin-1-yl)-N-(6-(2-methoxyethoxy)-2-methyl-2H-indazol-5-yl)pyrazine-2-carboxamide] and `C#CCOc1cc2nn(C)cc2cc1NC(=O)c1cnc(N2CC[C@@H](NC3CC3)C2)cn1` [Example 5, (R)-5-(3-(cyclopropylamino)pyrrolidin-1-yl)-N-(2-methyl-6-(prop-2-yn-1-yloxy)-2H-indazol-5-yl)pyrazine-2-carboxamide] fall in the same range of IC50: 100 to 500 nM for the first, 100 to 500 nM for the second.

First: COc1nc(NC(=O)c2cnc(N3CC4C(N)C4C3)cn2)cn2cc(C)nc12 (stereo not shown) [Example 26]
Second: CCNC1C2CN(c3cnc(C(=O)Nc4cn5cc(C)nc5c(OC)n4)cn3)CC21 (stereo not shown) [Example 34, 5-(6-(ethylamino)-3-azabicyclo[3.1.0]hexan-3-yl)-N-(8-methoxy-2-methylimidazo[1,2-a]pyrazin-6-yl)pyrazine-2-carboxamide]
The IC50 of the first is lower: < 100 nM for the first, 100 to 500 nM for the second. The first is the more potent here.

Compared with `Cc1cn2cc(NC(=O)c3cnc(N4CCC(N(C)C)C4=O)cn3)cc(F)c2n1` (single isomer, unassigned) [Example 38, (S*)-5-(3-(dimethylamino)-2-oxopyrrolidin-1-yl)-N-(8-fluoro-2-methylimidazo[1,2-a]pyridin-6-yl)pyrazine-2-carboxamide], `Cc1cn2cc(NC(=O)c3cnc(N4CC[C@@H](NC5CC5)C4=O)cn3)cc(F)c2n1` [Example 43, (R)-5-(3-(cyclopropylamino)-2-oxopyrrolidin-1-yl)-N-(8-fluoro-2-methylimidazo[1,2-a]pyridin-6-yl)pyrazine-2-carboxamide] is lower in IC50: 500 to 1000 nM for the first, 100 to 500 nM for the second.

First: C#CCOc1cc2nn(C)cc2cc1NC(=O)c1cnc(N2CC3(CCCN(C)C3)C2)cn1 [Example 11, N-(2-methyl-6-(prop-2-yn-1-yloxy)-2H-indazol-5-yl)-5-(6-methyl-2,6-diazaspiro[3.5]nonan-2-yl)pyrazine-2-carboxamide]
Second: C#CCOc1cc2nn(C)cc2cc1NC(=O)c1cnc(N2CC[C@@H](NC)C2)cn1 [Example 4, (R)-N-(2-methyl-6-(prop-2-yn-1-yloxy)-2H-indazol-5-yl)-5-(3-(methylamino)pyrrolidin-1-yl)pyrazine-2-carboxamide]
The IC50 of the first is higher: 100 to 500 nM for the first, < 100 nM for the second. The second is the more potent here.

`CN[C@@H]1CCN(c2cnc(C(=O)Nc3cc(F)c4nc(C)nn4c3)cn2)C1` [Example 19, (R)-N-(8-fluoro-2-methyl-[1,2,4]triazolo[1,5-a]pyridin-6-yl)-5-(3-(methylamino)pyrrolidin-1-yl)pyrazine-2-carboxamide] and `Cc1cn2cc(NC(=O)c3cnc(N4C[C@@H](C)[C@H](NC5CC5)C4)cn3)cc(F)c2n1` [Example 13, 5-((3S,4R)-3-(cyclopropylamino)-4-methylpyrrolidin-1-yl)-N-(8-fluoro-2-methylimidazo[1,2-a]pyridin-6-yl)pyrazine-2-carboxamide] fall in the same range of IC50: 100 to 500 nM for the first, 100 to 500 nM for the second.

`Cc1cn2cc(NC(=O)c3cnc(N4CCC(N(C)C)C4=O)cn3)cc(F)c2n1` (single isomer, unassigned) [Example 39, (R*)-5-(3-(dimethylamino)-2-oxopyrrolidin-1-yl)-N-(8-fluoro-2-methylimidazo[1,2-a]pyridin-6-yl)pyrazine-2-carboxamide] and `Cc1cn2cc(NC(=O)c3cnc(N4CC(CNC5CC5)CC4=O)cn3)cc(F)c2n1` (single isomer, unassigned) [Example 41, (S*)-5-(4-((cyclopropylamino)methyl)-2-oxopyrrolidin-1-yl)-N-(8-fluoro-2-methylimidazo[1,2-a]pyridin-6-yl)pyrazine-2-carboxamide] fall in the same range of IC50: 500 to 1000 nM for the first, 500 to 1000 nM for the second.

`Cn1cc2cc(NC(=O)c3cnc(N4CC[C@@H](NC5CC5)C4)cn3)c(OCC#N)cc2n1` [Example 7, (R)-N-(6-(cyanomethoxy)-2-methyl-2H-indazol-5-yl)-5-(3-(cyclopropylamino)pyrrolidin-1-yl)pyrazine-2-carboxamide] and `CC#CCOc1cc2nn(C)cc2cc1NC(=O)c1cnc(N2CC[C@@H](NC3CC3)C2)cn1` [Example 3, (R)-N-(6-(but-2-yn-1-yloxy)-2-methyl-2H-indazol-5-yl)-5-(3-(cyclopropylamino)pyrrolidin-1-yl)pyrazine-2-carboxamide] fall in the same range of IC50: 100 to 500 nM for the first, 100 to 500 nM for the second.

First: Cn1cc2cc(NC(=O)c3cnc(N4CC[C@@H](NC5CC5)C4)cn3)c(OC(F)F)cc2n1 [Example 18]
Second: Cc1cn2cc(NC(=O)c3cnc(N4CC[C@H](CNC5CC5)C4)cn3)c(F)c(C)c2n1 [Example 31, 5-[(3R)-3-[(cyclopropylamino)methyl]pyrrolidin-1-yl]-N-(7-fluoro-2,8-dimethyl-imidazo[1,2-a]pyridin-6-yl)pyrazine-2-carboxamide]
The IC50 of the first is higher: 100 to 500 nM for the first, < 100 nM for the second. The second is the more potent here.

First: Cc1cn2cc(NC(=O)c3cnc(N4CC5C[C@@]5(N)C4)cn3)cc(F)c2n1 (stereo partly drawn) [Example 35, 5-((1S)-1-amino-3-azabicyclo[3.1.0]hexan-3-yl)-N-(8-fluoro-2-methylimidazo[1,2-a]pyridin-6-yl)pyrazine-2-carboxamide]
Second: Cc1cn2cc(NC(=O)c3cnc(N4CC5C[C@]5(N)C4)cn3)cc(F)c2n1 (stereo partly drawn) [Example 36, 5-((1R)-1-amino-3-azabicyclo[3.1.0]hexan-3-yl)-N-(8-fluoro-2-methylimidazo[1,2-a]pyridin-6-yl)pyrazine-2-carboxamide]
The IC50 of the first is higher: 500 to 1000 nM for the first, 100 to 500 nM for the second. The second is the more potent here.

`Cc1cn2cc(NC(=O)c3cnc(N4CC(CNC5CC5)CC4=O)cn3)cc(F)c2n1` (single isomer, unassigned) [Example 40, (R*)-5-(4-((cyclopropylamino)methyl)-2-oxopyrrolidin-1-yl)-N-(8-fluoro-2-methylimidazo[1,2-a]pyridin-6-yl)pyrazine-2-carboxamide] and `Cc1cn2cc(NC(=O)c3cnc(N4CC5C(C4)C5NC4CC4)cn3)cc(F)c2n1` (stereo not shown) [Example 37, 5-[6-(Cyclopropylamino)-3-azabicyclo[3.1.0]hexan-3-yl]-N-(8-fluoro-2-methyl-imidazo[1,2-a]pyridin-6-yl)pyrazine-2-carboxamide] fall in the same range of IC50: 100 to 500 nM for the first, 100 to 500 nM for the second.

For `Cc1cn2cc(NC(=O)c3cnc(N4CCC(C)(N)C4)cn3)cc(F)c2n1` (racemic) [Example 42, 5-(3-Amino-3-methyl-pyrrolidin-1-yl)-N-(8-fluoro-2-methyl-imidazo[1,2-a]pyridin-6-yl)pyrazine-2-carboxamide], the IC50 was 100 to 500 nM.
